The target of the assay is T1, PE-labeled human PD-L1-Ig binding to Jurkat cell line over-expressing human PD-1 (Jurkat-PD-1) (Homo sapiens, UniProt Q15116).
T1 construct: expressed in transfected cells; host or cells: Jurkat
Nature of the assay: Jurkat-PD-1 Cell Binding High-Content Screening Assay (CBA): Method 1. The note with it: Jurkat-hPD-1 cells, PE-labeled PD-L1-Ig 20 nM final; read-out: Jurkat HPDL1 PD1 IC50 (uM) (Method 1).

SMILES strings stand for the structures. Bridge positions count the residues as written; N and C are the ends. Square brackets hold non-standard residues; d marks the D form. Peptide text beside a SMILES is read from it. * marks the point of attachment. ξ: configuration not given here. Phe(4-CH2NH2) = NCc1ccc(C[C@H](N)C(=O)O)cc1; Bip = N[C@@H](Cc1ccc(-c2ccccc2)cc1)C(=O)O; Phe(3-Me) = Cc1cccc(C[C@H](N)C(=O)O)c1; 4Pal = N[C@@H](Cc1ccncc1)C(=O)O; Cha = N[C@@H](CC1CCCCC1)C(=O)O; Cit = NC(=O)NCCC[C@H](N)C(=O)O; Ile(3ξ) = CCC(C)[C@H](N)C(=O)O; Thr(3ξ) = CC(O)[C@H](N)C(=O)O; Ahp(2) = CCCCC[C@H](N)C(=O)O; Carboxymethyl = O=C(O)C*; NMeA = CN[C@@H](C)C(=O)O; Dab = NCC[C@H](N)C(=O)O; Dap = NC[C@H](N)C(=O)O

T1 sequence (Q15116 25-288): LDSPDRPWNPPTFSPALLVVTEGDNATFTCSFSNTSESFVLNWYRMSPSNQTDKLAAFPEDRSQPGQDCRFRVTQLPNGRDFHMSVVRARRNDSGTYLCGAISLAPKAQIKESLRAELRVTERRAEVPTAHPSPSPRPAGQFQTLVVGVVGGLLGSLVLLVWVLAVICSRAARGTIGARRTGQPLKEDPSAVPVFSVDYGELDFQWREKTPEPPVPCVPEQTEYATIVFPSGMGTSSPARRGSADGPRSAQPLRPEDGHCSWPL

What is called IC50 is the concentration needed to halve the response being measured. Regarding `CCC(C)[C@@H]1NC(=O)[C@H](Cc2ccc(-c3ccccc3)cc2)NC(=O)[C@H](C(C)C)NC(=O)[C@H](Cc2cccc(C)c2)NC(=O)[C@H](CC(=O)O)NC(=O)[C@H](Cc2cccc(C)c2)NC(=O)[C@H](Cc2ccncc2)NC(=O)CSC[C@@H](C(=O)N[C@@H](CO)C(=O)O)NC(=O)[C@H](CO)NC(=O)[C@H](C(C)C)NC(=O)[C@H](CC2CCCCC2)NC(=O)[C@H](CCN)NC(=O)[C@@H](CC(C)C)NC(=O)[C@H](C)N(C)C1=O` (stereo partly drawn) [Compound 2235] ({CH2CO}-[4Pal][Phe(3-Me)]D[Phe(3-Me)]V[Bip][Ile(3ξ)][NMeA][dL][Dab][Cha]VSCS-OH; thioether N-14), the IC50 stood at 0.3 µM.

Consider `CCC(C)[C@@H]1NC(=O)[C@H](Cc2ccc(-c3ccccc3)cc2)NC(=O)[C@H](C(C)C)NC(=O)[C@H](Cc2c[nH]c3ccccc23)NC(=O)[C@H](CC(=O)O)NC(=O)[C@H](Cc2ccc(O)cc2)NC(=O)[C@H](Cc2ccc(CN)cc2)NC(=O)CSC[C@@H](C(=O)N[C@@H](C)C(N)=O)NC(=O)[C@H](C(C)O)NC(=O)[C@H](C(C)C)NC(=O)[C@H](CC2CCCCC2)NC(=O)[C@H](CC(N)=O)NC(=O)[C@@H](CC(C)C)NC(=O)[C@H](C)N(C)C1=O` (stereo partly drawn) [Compound 2047] ({CH2CO}-[Phe(4-CH2NH2)]YDWV[Bip][Ile(3ξ)][NMeA][dL]N[Cha]V[Thr(3ξ)]CA-NH2; thioether N-14), for which the concentration for half-maximal inhibition (IC50) was found to be 0.06 µM.

Consider `CCC(C)[C@@H]1NC(=O)[C@H](Cc2ccc(-c3ccccc3)cc2)NC(=O)[C@H](C(C)C)NC(=O)[C@H](Cc2c[nH]c3ccccc23)NC(=O)[C@H](CC(=O)O)NC(=O)[C@H](Cc2ccc(OCC(=O)O)cc2)NC(=O)[C@H](C(C)O)NC(=O)CSC[C@@H](C(N)=O)NC(=O)[C@H](C(C)O)NC(=O)[C@H](C(C)C)NC(=O)[C@H](CC2CCCCC2)NC(=O)[C@H](CCN)NC(=O)[C@@H](CC(C)C)NC(=O)[C@H](C)N(C)C1=O` (stereo partly drawn) [Compound 2248] ({CH2CO}-[Thr(3ξ)]Y(Carboxymethyl)DWV[Bip][Ile(3ξ)][NMeA][dL][Dab][Cha]V[Thr(3ξ)]C-NH2; thioether N-14), for which the half-inhibitory concentration (IC50) was determined as 0.04 µM.

Take `CC(C)C[C@@H]1NC(=O)[C@H](Cc2c[nH]c3ccccc23)NC(=O)[C@H](CC(=O)O)NC(=O)[C@H](Cc2ccc(O)cc2)NC(=O)[C@H](Cc2ccccc2)NC(=O)CSC[C@@H](C(=O)NCC(N)=O)NC(=O)[C@H](CO)NC(=O)[C@H](C(C)C)NC(=O)[C@H](CC(C)C)NC(=O)[C@H](CCN)NC(=O)[C@@H](CC(C)C)NC(=O)[C@H](C)N(C)C(=O)[C@H](CCCNC(N)=O)NC(=O)[C@H](Cc2ccc(-c3ccccc3)cc2)NC1=O` [Compound 1512] ({CH2CO}-FYDWL[Bip][Cit][NMeA][dL][Dab]LVSCG-NH2; thioether N-14): the IC50 was 0.02 µM.

In the case of `CC(C)C[C@@H]1NC(=O)[C@H](Cc2c[nH]c3ccccc23)NC(=O)[C@H](CC(=O)O)NC(=O)[C@H](Cc2ccc(O)cc2)NC(=O)[C@H](Cc2ccccc2)NC(=O)CSC[C@@H](C(=O)N[C@@H](C)C(N)=O)NC(=O)[C@H]([C@@H](C)O)NC(=O)[C@H](C(C)C)NC(=O)[C@H](CC(C)C)NC(=O)[C@H](CCN)NC(=O)[C@@H](C)NC(=O)[C@H](C)N(C)C(=O)[C@H](C(C)C)NC(=O)[C@H](Cc2ccc(-c3ccccc3)cc2)NC1=O` [Compound 1478] ({CH2CO}-FYDWL[Bip]V[NMeA][dA][Dab]LVTCA-NH2; thioether N-14), the 50% inhibitory concentration (IC50) is 0.02 µM.

Turning to `CCCCC[C@@H]1NC(=O)[C@H](Cc2ccc(-c3ccccc3)cc2)NC(=O)[C@H](C(C)C)NC(=O)[C@H](Cc2c[nH]c3ccccc23)NC(=O)[C@H](CC(=O)O)NC(=O)[C@H](Cc2ccc(O)cc2)NC(=O)[C@H](CN)NC(=O)CSC[C@@H](C(=O)N[C@@H](C)C(N)=O)NC(=O)[C@H](C(C)O)NC(=O)[C@H](C(C)C)NC(=O)[C@H](CC(C)C)NC(=O)[C@H](CCN)NC(=O)[C@@H](CC(C)C)NC(=O)[C@H](C)N(C)C1=O` (stereo partly drawn) [Compound 2082] ({CH2CO}-[Dap]YDWV[Bip][Ahp(2)][NMeA][dL][Dab]LV[Thr(3ξ)]CA-NH2; thioether N-14), the IC50 was 0.07 µM.

The record behind these values is patent publication US20240409585A1, “MACROCYCLIC IMMUNOMODULATORS” (priority 2021, published 2024).
